The term pKi denotes −log10 of the Ki, conventionally taken in molar units. A higher pKi goes with a small Ki.

Each structure is given as a SMILES string. pKi: −log10 of the molar value.

For 12 compounds, Ke, Ki and Selectivity ratio results are on record in ChEMBL document CHEMBL1136566, “Synthesis, opioid receptor binding, and functional activity of 5'-substituted 17-cyclopropylmethylpyrido[2',3':6,7]morphinans” (Bioorg Med Chem Lett, 2003).

In assay [1] the target is Delta-type opioid receptor (Mus musculus) (UniProt P32300). As to the kind of experiment: Antagonist potency against delta opioid receptor was measured in mouse vas-deferens using DPDPE. The assay is classed as functional.
Delta-type opioid receptor (Mus musculus), sequence (P32300 whole entry): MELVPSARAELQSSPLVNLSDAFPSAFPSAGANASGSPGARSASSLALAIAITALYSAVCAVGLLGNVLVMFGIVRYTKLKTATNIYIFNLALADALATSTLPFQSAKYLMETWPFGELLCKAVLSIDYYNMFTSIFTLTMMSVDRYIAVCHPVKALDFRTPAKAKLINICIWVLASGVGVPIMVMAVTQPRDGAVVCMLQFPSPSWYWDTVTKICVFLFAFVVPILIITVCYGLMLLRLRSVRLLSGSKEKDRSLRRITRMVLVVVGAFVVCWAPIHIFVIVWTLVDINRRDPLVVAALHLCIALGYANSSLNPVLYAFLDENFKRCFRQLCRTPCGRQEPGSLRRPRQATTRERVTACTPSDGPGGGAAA
Assay [2] addresses T1, Kappa-type opioid receptor (Cavia porcellus, UniProt P41144). As to the kind of experiment: Binding affinity for kappa opioid receptor was measured using [3H]U-69593.
Assay [3] concerns the target Mu-type opioid receptor (Cavia porcellus) (UniProt P97266). In words: Antagonist potency against mu opioid receptor was measured in guinea-pig ileal longitudinal muscle using PL-017. The assay is classed as functional.
Assay [4] concerns the target Mu-type opioid receptor (Rattus norvegicus, UniProt P33535). As to the kind of experiment: Binding affinity to mu opioid receptor was measured using [3H]DAMGO.
Assay [5] concerns the target Delta-type opioid receptor (Rattus norvegicus, UniProt P33533). In words: Binding affinity to delta opioid receptor was measured using [3H]DADLE.
The target in assay [6] is Opioid receptors; mu & delta (Rattus norvegicus) (UniProt P33533+P33535). As to the kind of experiment: Selectivity ratio was measured between mu and delta opioid receptor. In kind it is protein assay.
Opioid receptors; mu & delta (Rattus norvegicus), sequence (P33533 whole entry, looked up): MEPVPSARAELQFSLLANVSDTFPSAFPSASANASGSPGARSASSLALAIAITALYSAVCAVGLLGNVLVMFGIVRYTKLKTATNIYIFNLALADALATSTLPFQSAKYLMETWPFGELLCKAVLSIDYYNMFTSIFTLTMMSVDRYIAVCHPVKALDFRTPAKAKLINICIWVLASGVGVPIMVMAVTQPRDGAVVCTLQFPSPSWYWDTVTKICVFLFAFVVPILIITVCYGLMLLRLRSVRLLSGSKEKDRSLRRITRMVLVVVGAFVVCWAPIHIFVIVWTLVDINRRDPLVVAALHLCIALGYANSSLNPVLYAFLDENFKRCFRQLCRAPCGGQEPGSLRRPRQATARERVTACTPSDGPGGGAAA
Opioid receptors; mu & delta (Rattus norvegicus), sequence (P33535 whole entry, looked up): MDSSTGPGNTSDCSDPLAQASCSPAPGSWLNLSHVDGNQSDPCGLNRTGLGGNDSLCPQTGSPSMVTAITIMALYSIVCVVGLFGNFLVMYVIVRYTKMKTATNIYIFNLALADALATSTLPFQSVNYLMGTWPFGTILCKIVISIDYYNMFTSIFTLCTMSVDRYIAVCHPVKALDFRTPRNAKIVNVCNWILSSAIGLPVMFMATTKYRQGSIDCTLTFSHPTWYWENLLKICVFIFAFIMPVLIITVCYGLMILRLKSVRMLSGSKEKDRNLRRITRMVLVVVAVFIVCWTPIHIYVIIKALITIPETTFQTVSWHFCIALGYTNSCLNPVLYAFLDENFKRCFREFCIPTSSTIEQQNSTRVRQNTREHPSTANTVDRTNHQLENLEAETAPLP
Assay [7] can be described thus: Selectivity ratio was measured between kappa and delta opioid receptor.
The nature of assay [8]: Selectivity ratio between delta and mu opioid receptor in corresponding mouse vas-deferens and guinea-pig ileal longitudinal muscle. In kind it is functional.
Assay [9] deals with T1, Kappa-type opioid receptor. In words: Antagonist activity on agonist stimulated [35S]GTP-gamma-S, binding in guinea pig caudate membranes (10 uM U69,593 as the agonist ligand for kappa-receptor). In kind it is functional, cell membranes. For orientation: Binding of GTPγS marks nucleotide exchange on a G protein.
Assay [10] has as its target T2, Mu-type opioid receptor (Cavia porcellus, UniProt P97266). As to the kind of experiment: Antagonist activity on agonist stimulated [35S]GTP-gamma-S, binding in guinea pig caudate membranes (10 uM DAMGO as the agonist ligand for Mu-receptor). The assay is classed as functional, cell membranes.
Assay [11] deals with T2, Mu-type opioid receptor. In words: Antagonist activity on agonist stimulated [35S]GTP-gamma-S, binding in guinea pig caudate membranes (10 uM DAMGO as the agonist ligand for mu-receptor). In kind it is functional, cell membranes.

T1 sequence (P41144 whole entry): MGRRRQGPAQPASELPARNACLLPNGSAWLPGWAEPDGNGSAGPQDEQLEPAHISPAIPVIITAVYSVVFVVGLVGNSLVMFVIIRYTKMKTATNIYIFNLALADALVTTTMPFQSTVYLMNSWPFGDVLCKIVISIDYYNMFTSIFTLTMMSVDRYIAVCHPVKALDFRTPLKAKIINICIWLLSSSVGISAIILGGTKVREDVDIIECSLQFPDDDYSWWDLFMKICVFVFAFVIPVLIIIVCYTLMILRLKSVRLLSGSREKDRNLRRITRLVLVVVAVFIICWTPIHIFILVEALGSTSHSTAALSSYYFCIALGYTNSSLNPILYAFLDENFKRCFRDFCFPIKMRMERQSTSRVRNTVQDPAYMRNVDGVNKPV
T2 sequence (P97266 whole entry): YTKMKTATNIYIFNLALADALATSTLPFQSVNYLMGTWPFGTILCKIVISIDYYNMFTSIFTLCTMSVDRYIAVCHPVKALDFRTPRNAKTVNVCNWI
Mu-type opioid receptor (Cavia porcellus), sequence (P97266 whole entry): as above
Delta-type opioid receptor, sequence (P33533 whole entry): as the sequence (P33533 whole entry, looked up) above
Mu-type opioid receptor (Rattus norvegicus, UniProt P33535), sequence (P33535 whole entry): as the sequence (P33535 whole entry, looked up) above

Turning to `Oc1ccc2c3c1O[C@H]1c4ncc(Br)cc4C[C@@]4(O)[C@@H](C2)N(CC2CC2)CC[C@]314`, the figures for the Ke in [1] and in [3] were 3.6 nM and 36 nM, respectively. The values for the negative-log Ki (pKi) (in [2]; at Mu-type opioid receptor [4]; in assay [5]) were 7.25, 7.81 and 8.92, respectively. Also, the Selectivity ratio in [6] worked out at 12.9; in assay [7], 46; in assay [8] it was 10.

In the case of `Nc1cnc2c(c1)C[C@@]1(O)[C@H]3Cc4ccc(O)c5c4[C@@]1(CCN3CC1CC1)[C@H]2O5`, the results for the Ke in assay [1] and in assay [3] were 25 nM and 48 nM, respectively. The Selectivity ratio is 1.6 in [6], 1.5 in assay [7] and 1.9 in [8].

`Oc1ccc2c3c1O[C@H]1c4ncc(-n5cccc5)cc4C[C@@]4(O)[C@@H](C2)N(CC2CC2)CC[C@]314`: the Ke worked out at 6.6 nM in [1] and 62 nM in assay [3]. Moreover, the pKi was 7.91 in assay [2]; 8.06 in assay [9]; 8.38 on Mu-type opioid receptor [10]; 7.72 on Mu-type opioid receptor [4]; 9.19 in assay [5]. The Selectivity ratio stood at 30 in assay [6] and 19 in [7].

On to `Oc1ccc2c3c1O[C@H]1c4ncc(CNc5ccccc5)cc4C[C@@]4(O)[C@@H](C2)N(CC2CC2)CC[C@]314`, for which the Ke came out at 6.5 nM in [1] and 5.9 nM in assay [3]. The values for the negative-log Ki (pKi) (in [2]; on Mu-type opioid receptor [4]; in assay [5]) were 7.72, 8.22 and 8.74, respectively. In addition, the results for the Selectivity ratio in assay [6], in assay [7] and in assay [8] were 3.3, 10.6 and 0.9, respectively.

For `Oc1ccc2c3c1O[C@H]1c4[nH]c5ccccc5c4C[C@@]4(O)[C@@H](C2)N(CC2CC2)CC[C@]314` [NALTRINDOLE], the Ke in assay [1] was found to be 0.53 nM. The negative-log Ki (pKi) in assay [9] is 8.22; at Mu-type opioid receptor [11], 8.74.

On to `O=[N+]([O-])c1cnc2c(c1)C[C@@]1(O)[C@H]3Cc4ccc(O)c5c4[C@@]1(CCN3CC1CC1)[C@H]2O5`, for which the Ke in [1] is 53 nM; in [3] it was 200 nM. Moreover, the pKi in assay [2] is 7.04; on Mu-type opioid receptor [4], 7.76; in assay [5] it was 8.26. The Selectivity ratio in assay [6] was determined as 3.2; in assay [7], 17; in assay [8] it was 3.8.

For `N#Cc1cnc2c(c1)C[C@@]1(O)[C@H]3Cc4ccc(O)c5c4[C@@]1(CCN3CC1CC1)[C@H]2O5`, the Ke in assay [1] is 44 nM; in [3] it was more than 1000 nM. Moreover, the pKi in assay [2] is 7.47; at Mu-type opioid receptor [4], 7.80; in assay [5], 8.35. In addition, the results for the Selectivity ratio in assay [6], in [7] and in assay [8] were 3.6, 7.5 and more than 22, respectively.

`Oc1ccc2c3c1O[C@H]1c4ncccc4C[C@@]4(O)[C@@H](C2)N(CC2CC2)CC[C@]314`: the values for the Selectivity ratio in assay [6], in assay [7] and in assay [8] were 1.9, 11 and 5.1, respectively.

Regarding `CCOC(=O)c1cnc2c(c1)C[C@@]1(O)[C@H]3Cc4ccc(O)c5c4[C@@]1(CCN3CC1CC1)[C@H]2O5`, in assay [8], the Selectivity ratio stood at 4.4.

`Oc1ccc2c3c1O[C@H]1c4[nH]c5c(c4C[C@@]4(O)[C@@H](C2)N(CC2CC2)CC[C@]314)C[C@@]1(O)[C@H]2Cc3ccc(O)c4c3[C@@]1(CCN2CC1CC1)[C@H]5O4` [NORBINALTORPHIMINE]: the pKi in [9] was 9.92; on Mu-type opioid receptor [11], 7.83.

Take `Oc1ccc2c3c1O[C@H]1c4ncc(NCc5ccccc5)cc4C[C@@]4(O)[C@@H](C2)N(CC2CC2)CC[C@]314`: the Ke was 6.5 nM in [1] and 5.9 nM in [3]. In addition, the pKi is 8.17 in assay [2], 7.82 at Mu-type opioid receptor [4] and 8.89 in assay [5]. Also, the Selectivity ratio in [6] was determined as 11.5; in assay [7], 5.2; in [8], 0.9.

For the compound `N=C(N)Nc1cnc2c(c1)C[C@@]1(O)[C@H]3Cc4ccc(O)c5c4[C@@]1(CCN3CC1CC1)[C@H]2O5`, the figures for the Ke in [1] and in [3] were 170 nM and 500 nM, respectively. Moreover, the negative-log Ki (pKi) in assay [2] was 9.15; in assay [9] it was 9.00; at Mu-type opioid receptor [10] it was 8.21; at Mu-type opioid receptor [4], 7.59; in assay [5], 7.73. For the same compound, the results for the Selectivity ratio in [6] and in assay [7] were 1.4 and 0.037, respectively.
